Laboratory results from paper PMC10654507, “A cleavable chimeric peptide with targeting and killing domains enhances LPS neutralization and antibacterial properties against multi-drug resistant E. coli” (Communications Biology, 2023).
≈ marks a conversion by molar mass, not a printed value. Residues, ends and D or L forms follow the SMILES beside them.

Legend:
RAW264.7 cells = experiment: Cytotoxicity, MTT method; format: cell-based; conditions: for RAW 264.7 cell survival: 128 μM; for cytotoxicity: low concentration (0 ~ 32 μM)
Experimental: RAW264.7 cells (2.5 × 10^4 cells/mL, 100 μL) were added into the 96-well plate and cultured at 37 °C in 5% CO2 for 24 h. After removing the medium and washing twice with PBS, 100 μL peptides (1, 2, 4, 8, 16, 32, 64 and 128 μM) were added to each well. PBS was served as the negative control. After incubation for 24 h, 20 μL MTT (5 mg/mL) was added into each well and incubated for another 4 h. Then, the supernatant was removed and 150 μL dimethylsulfoxide (DMSO) was added into the plate and shaken for 10 min. The absorbance of each well was measured at 570 nm and the survival rate of cells was calculated as follows: Survival (%) = [(Abspeptide/ Abscontrol)] × 100, where Abspeptide and Abscontrol present the absorbance of peptide and PBS control, respectively.

LPS = experiment: Intestinal alkaline phosphatase (IAP) activity in duodenum, LPS-challenged mice; format: in vivo, mouse; design: IAP levels in mice: unit not given beside the values; conditions: for IAP levels in mice: Fig. 7f source data, peptide + LPS, mean
Experimental: (§1) After E. coli or LPS challenge, the mice were sacrificed at 12 h and 24 h, respectively, and the sera were collected to detect inflammatory cytokines (such as tumor necrosis factor-α (TNF-α), interleukin-6 (IL-6), interleukin-1β (IL-1β), and interleukin-10 (IL-10)) using the enzyme linked immunosorbent assay (ELISA) kits. To evaluate the specific activity of intestinal alkaline phosphatase (IAP), a 2 cm segment of duodenum was rapidly intercepted from the mice and homogenized; the IAP levels in the supernatant were detected by ELISA. In addition, the lungs were collected from the mice infected by E. coli after 12 and 24 h, respectively and were homogenized in sterile PBS for the bacterial counts assay.

mouse red blood cells = experiment: Hemolytic activity; format: cell-based
Experimental: Blood was collected from the eyeballs of specific pathogen-free (SPF) ICR female mice (6-week-old) with an anticoagulant tube and centrifuged for 10 min (4 °C, 1500 rpm). After washing twice with 0.9% physiological saline, red blood cells were diluted to 8% suspension and added into the Eppendorf tube (100 μL); 2-fold peptide solutions dissolved in 0.9% physiological saline (100 μL) were then added into the tube, incubated at 37 °C for 1 h, and centrifugated at 4 °C for 5 min. The supernatant was pipetted into a 96-well plate and the UV absorbance was measured at 540 nm using a microplate reader. 0.1% Triton X-100 and physiological saline were used as positive and negative control, respectively. The hemolysis rate is calculated as follows: Hemolysis (%) = [(Abspeptide-Abssaline) / (Abs0.1% Triton X-100- Abssaline)] × 100[13].

MDR E. coli CVCC195 [1] = experiment: Intestinal alkaline phosphatase (IAP) activity in duodenum, E. coli-challenged mice; format: in vivo, mouse; conditions: for IAP levels in mice: Fig. 5g source data, peptide + E. coli, mean; for IAP activity: duodenum, 12 h after E. coli infection, mice pre-treated with 7 μmol/kg peptide, ELISA
Experimental: as §1

[2] = Serum stability in mouse serum (RP-HPLC); format: in vitro ADME; conditions: 25% mouse serum; for remaining at 0.5 h, 0.5 mM / remaining at 1 h, 0.5 mM / remaining at 2 h, 0.5 mM / remaining at 4 h, 0.5 mM / remaining rate in mouse serum / remaining at 8 h, 0.5 mM: peptide 0.5 mM, mean of three; for remaining at 0.5 h, 0.5 mM / remaining at 1 h, 0.5 mM / remaining at 2 h, 0.5 mM / remaining at 4 h, 0.5 mM / remaining at 8 h, 0.5 mM: read-out: remaining rate in mouse serum; for remaining rate in mouse serum / remaining at 8 h, 0.5 mM: 8 h; for peptide remained intact in mouse serum: range from 2 h to 8 h of incubation
Experimental: (§2) Serum stability of R7 and its parent-L7 was tested as previously described with minor modifications[46],[53]. Briefly, each peptide was added to the 25% mouse serum to a final concentration of 0.5 mM; 250 µL aliquots of samples were taken at 0, 0.5, 1, 2, 4 and 8 h, and mixed with 20 µL 15% trichloroacetic acid (TCA). The samples were incubated at 4 °C for 15 min and centrifuged for 10 min at 12,000 rpm. The supernatants were analyzed by RP-HPLC or inhibition zone method. Moreover, after incubation in serum for 2 h, R7 was analyzed by matrix assisted laser desorption/ionization-time of flight mass spectrometry (MALDI-TOF MS) and high-performance liquid chromatography-mass spectrometry (HPLC-MS), respectively.

S. aureus CVCC546 = format: cell-based, Staphylococcus aureus; conditions: repeated three times; for MBC: lowest concentration giving 99.9% reduction of the inoculum; for MIC: microtiter broth dilution, 10^5 CFU/mL, 37 °C, 16 ~ 18 h
Experimental: The minimum inhibitory concentration (MIC) and minimum bactericidal concentration (MBC) of peptides were determined by the microtiter broth dilution method according to Clinical and Laboratory Standards Institute (CLSI) guidelines. […] PBS was used as the negative control. […] The MBC value was calculated as the lowest concentration of peptides resulting in a 99.9% reduction of the original inoculum. All experiments were repeated three times.

MDR E. coli CVCC195 [3] = experiment: Mouse survival, preventive treatment before MDR E. coli challenge; format: in vivo; conditions: 7 μmol/kg i.p. at 0 h, MDR E. coli CVCC195 0.5 × 10^9 CFU/mouse i.p. at 6 h; five mice/group
Experimental: A sepsis mouse model established in our laboratory was used to evaluate the prevention effect of peptides. […] The survival rate of mice was recorded for 7 days. The mice injected with saline were used as negative control.

MDR E. coli = experiment: Antibacterial activity after incubation in human serum (inhibition assay); format: cell-based, Escherichia coli; conditions: Supplementary Fig. 2c source data, mean
Experimental: as §2, with “Briefly, each peptide was added to the 25% mouse serum to a final concentration of 0.5 mM; 250 µL aliquots of samples were taken at 0, 0.5, 1, 2, 4 and 8 h, and mixed with 20 µL 15% trichloroacetic acid (TCA).” left out
Supplementary Figure 2. Serum stability and release of peptides in human serum. a Detection of the peak area change of peptides in serum by RP-HPLC. b The remaining rate of peptides in bovine serum. c The antibacterial activity of peptides against MDR E. coli in serum detected by an inhibition assay. d The MALDI-TOF mass spectrometry of R7 after incubation in bovine serum for 2 h. The experiments were repeated three times. Data in a and d is representative of three biological replicates.
The results are given as the mean ± SD of three independent experiments in b and c. Different lower-case letters indicate a significant difference between the two groups (p<0.05).
(1 picture or pasted object on this page, not shown here)

[4] = concentration 1 μg/ml (as headed), 37 °C, 1 h, absorbance 540 nm, 0.1% Triton X-100 = 100, mean, n = 3
[5] = concentration 2 μg/ml (as headed), 37 °C, 1 h, absorbance 540 nm, mean, n = 3
[6] = concentration 4 μg/ml (as headed), 37 °C, 1 h, absorbance 540 nm, mean, n = 3
[7] = concentration 8 μg/ml (as headed), 37 °C, 1 h, absorbance 540 nm, mean, n = 3
[8] = concentration 16 μg/ml (as headed), 37 °C, 1 h, absorbance 540 nm, mean, n = 3
[9] = concentration 32 μg/ml (as headed), 37 °C, 1 h, absorbance 540 nm, mean, n = 3
[10] = concentration 64 μg/ml (as headed), 37 °C, 1 h, absorbance 540 nm, mean, n = 3
[11] = concentration 128 μg/ml (as headed), 37 °C, 1 h, absorbance 540 nm, mean, n = 3
[12] = incubation in human serum 0.5 h

Row | SMILES | RAW 264.7 cell survival (RAW264.7 cells) [%] | cytotoxicity (RAW264.7 cells) | IAP levels in mice (LPS; 12 h) | IAP levels in mice (LPS; 24 h) | Hemolysis (mouse red blood cells; [4]) [%] | Hemolysis (mouse red blood cells; [5]) [%] | Hemolysis (mouse red blood cells; [6]) [%] | Hemolysis (mouse red blood cells; [7]) [%] | Hemolysis (mouse red blood cells; [8]) [%] | Hemolysis (mouse red blood cells; [9]) [%] | Hemolysis (mouse red blood cells; [10]) [%] | Hemolysis (mouse red blood cells; [11]) [%] | Hemolysis (mouse red blood cells; low concentration (0 ~ 32 μM)) | IAP levels in mice (MDR E. coli CVCC195 [1]; 12 h) | IAP levels in mice (MDR E. coli CVCC195 [1]; 24 h) | IAP activity (MDR E. coli CVCC195 [1]) [U/g] | remaining at 0.5 h, 0.5 mM [2] [%] | remaining at 1 h, 0.5 mM [2] [%] | remaining at 2 h, 0.5 mM [2] [%] | remaining at 4 h, 0.5 mM [2] [%] | also measured
1 | CSCC[C@H](NC(=O)[C@H](CCCNC(=N)N)NC(=O)[C@H](Cc1c[nH]c2ccccc12)NC(=O)[C@H](C)NC(=O)[C@H](Cc1c[nH]c2ccccc12)NC(=O)[C@H](CCCNC(=N)N)NC(=O)[C@H](Cc1c[nH]c2ccccc12)NC(=O)[C@H](C)NC(=O)[C@H](CCCCN)NC(=O)[C@@H](N)Cc1ccccc1)C(=O)N[C@@H](CCCCN)C(=O)N[C@@H](CCCCN)C(=O)N[C@@H](CC(C)C)C(=O)N[C@@H](C)C(=O)N[C@@H](C)C(=O)N1CCC[C@H]1C(=O)N[C@@H](CO)C(=O)O [L7] (H-FKAWRWAWRMKKLAAPS-OH) | 87.7 | no hemolysis and cytotoxicity | 684.97 | 544.938 | -0.1237 | 0.165 | -0.1856 | -0.6393 | 0.04126 | -0.3506 | -0.6805 | -1.031 | no hemolysis | 646.785 | 420.095 | 646.8 | 74.5 | 62.7 | 25.3 | 6.01 | hemolysis against mouse red blood cells (mouse red blood cells; 128 μM): 0%; remaining rate in mouse serum [2]: completely undetectable; remaining at 8 h, 0.5 mM [2]: 0.829%; peptide remained intact in mouse serum [2]: 25.3 ~ 0.8%; MBC (S. aureus CVCC546): 36.2 µM (≈ 77.2 µg/mL); MIC (S. aureus CVCC546): 18.1 µM (≈ 38.6 µg/mL); mouse survival at 7 days (MDR E. coli CVCC195 [3]): 60%; antibacterial activity against MDR E. coli in human serum detected by an inhibition assay (MDR E. coli; incubation in human serum 0 h): 0.99; antibacterial activity against MDR E. coli in human serum detected by an inhibition assay (MDR E. coli; [12]): 0.9833; antibacterial activity against MDR E. coli in human serum detected by an inhibition assay (MDR E. coli; incubation in human serum 1 h): 0.9833; antibacterial activity against MDR E. coli in human serum detected by an inhibition assay (MDR E. coli; incubation in human serum 2 h): 0.8667; antibacterial activity against MDR E. coli in human serum detected by an inhibition assay (MDR E. coli; incubation in human serum 4 h): 0.78; antibacterial activity against MDR E. coli in human serum detected by an inhibition assay (MDR E. coli; incubation in human serum 8 h): 0
2 | CSCC[C@H](NC(=O)[C@H](CCCNC(=N)N)NC(=O)[C@H](Cc1c[nH]c2ccccc12)NC(=O)[C@H](C)NC(=O)[C@H](Cc1c[nH]c2ccccc12)NC(=O)[C@H](CCCNC(=N)N)NC(=O)[C@H](Cc1c[nH]c2ccccc12)NC(=O)[C@H](C)NC(=O)[C@H](CCCCN)NC(=O)[C@H](Cc1ccccc1)NC(=O)[C@H](CCCNC(=N)N)NC(=O)[C@H](CCCNC(=N)N)NC(=O)[C@H](CCCCN)NC(=O)[C@H](CCCNC(=N)N)NC(=O)[C@H](CCCCN)NC(=O)[C@H](Cc1ccccc1)NC(=O)[C@H](Cc1ccccc1)NC(=O)[C@H](CO)NC(=O)[C@H](C)NC(=O)[C@H](CCCNC(=N)N)NC(=O)[C@@H](NC(=O)[C@H](CCCCN)NC(=O)[C@H](Cc1c[nH]c2ccccc12)NC(=O)[C@H](CCCNC(=N)N)NC(=O)CNC(=O)[C@H](CCC(N)=O)NC(=O)[C@@H](NC(=O)[C@@H](N)CCCNC(=N)N)C(C)C)C(C)C)C(=O)N[C@@H](CCCCN)C(=O)N[C@@H](CCCCN)C(=O)N[C@@H](CC(C)C)C(=O)N[C@@H](C)C(=O)N[C@@H](C)C(=O)N1CCC[C@H]1C(=O)N[C@@H](CO)C(=O)O [R7] (H-RVQGRWKVRASFFKRKRRFKAWRWAWRMKKLAAPS-OH) | 58.2 | no hemolysis and cytotoxicity | 1301.32 | 927.606 | -0.4331 | -0.2475 | -0.2475 | -0.1031 | 0.495 | 2.846 | 6.991 | 10.9301 | no hemolysis | 514.632 | 541.948 | 514.6 | 101 | 81.6 | 29.8 | 21.2 | effect on IAP activity compared to the LPS group (LPS; 12 h after LPS challenge): significantly up-regulated; effect on IAP activity compared to the LPS group (LPS; 24 h after LPS challenge): no significant changes; remaining rate in mouse serum [2]: ~ 20%; remaining at 8 h, 0.5 mM [2]: 21.7%; peptide remained intact in mouse serum [2]: 29.8 ~ 21.7%; MBC (S. aureus CVCC546): 2.26 µM (≈ 10.1 µg/mL); MIC (S. aureus CVCC546): 2.26 µM (≈ 10.1 µg/mL); mouse survival at 7 days (MDR E. coli CVCC195 [3]): 100%; antibacterial activity against MDR E. coli in human serum detected by an inhibition assay (MDR E. coli; incubation in human serum 0 h): 0.8933; antibacterial activity against MDR E. coli in human serum detected by an inhibition assay (MDR E. coli; [12]): 0.91; antibacterial activity against MDR E. coli in human serum detected by an inhibition assay (MDR E. coli; incubation in human serum 1 h): 0.91; antibacterial activity against MDR E. coli in human serum detected by an inhibition assay (MDR E. coli; incubation in human serum 2 h): 0.8967; antibacterial activity against MDR E. coli in human serum detected by an inhibition assay (MDR E. coli; incubation in human serum 4 h): 0.9033; antibacterial activity against MDR E. coli in human serum detected by an inhibition assay (MDR E. coli; incubation in human serum 8 h): 0.8967
